In article PMC5433426, “Identification of small molecule inhibitors of the Lin28-mediated blockage of pre-let-7g processing” (Organic & Biomolecular Chemistry, 2016):
Where two headings read alike, the source gives them in different places.

Molecular target: T1, Lin28 (Homo sapiens, UniProt Q9H9Z2)
T1 construct: gene LIN28A; recombinant, N-terminal GST tag; multimeric on pre-let-7
T1 sequence (Q9H9Z2 1-209): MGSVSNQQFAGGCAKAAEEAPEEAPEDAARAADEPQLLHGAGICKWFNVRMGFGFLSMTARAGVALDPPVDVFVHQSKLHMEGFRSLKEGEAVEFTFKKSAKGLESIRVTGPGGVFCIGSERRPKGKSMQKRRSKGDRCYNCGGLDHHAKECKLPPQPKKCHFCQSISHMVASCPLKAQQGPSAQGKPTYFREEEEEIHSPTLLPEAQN
Assay: fluorescence polarization displacement of fluorescein-labelled tpre-let-7g RNA
Assay type: binding

IC50 (read-out: IC50) [µM] | SMILES | IC50 [µM]
1.18 ± 0.23 | O=C(O)C1=CC(=C(c2ccc(O)c(C(=O)O)c2)c2ccc(O)c(C(=O)O)c2)C=CC1=O [compound 4, Aurintricarboxylic acid] | –
4.71 ± 0.16 | O=C(O)c1ccc2nc3c4c(O)ccc(O)c4c(=O)c(Cl)c-3oc2c1 [compound 14, SB/ZW/0065] | –
– | NC(Cc1cc(O)c(O)cc1O)C(=O)O (racemic) [compound 10, 6-hydroxy-DL-DOPA] | 7.05 ± 0.13

SMILES | IC50 (read-out: IC50) [µM] | IC50 [µM]
Nc1c(S(=O)(=O)O)cc(Nc2ccc(S(=O)(=O)O)c(Nc3nc(Cl)nc(Cl)n3)c2)c2c1C(=O)c1ccccc1C2=O [11b, Reactive Blue 4] | 10.75 ± 0.1 | –
